According to US20080146811A1, “Compounds and Methods For Treatment of Thrombosis” (priority 2004, published 2008):

Legend:
Type in all cases: biochemical
factor XIa = factor XIa (Homo sapiens, UniProt P03951); experiment: In vitro inhibition of factor XIa
factor Xa = factor Xa (Homo sapiens, UniProt P00742); experiment: In vitro inhibition of factor Xa
thrombin = thrombin (Homo sapiens, UniProt P00734); experiment: In vitro inhibition of thrombin

Chain of factor Xa (P00742 235-488 limits assumed): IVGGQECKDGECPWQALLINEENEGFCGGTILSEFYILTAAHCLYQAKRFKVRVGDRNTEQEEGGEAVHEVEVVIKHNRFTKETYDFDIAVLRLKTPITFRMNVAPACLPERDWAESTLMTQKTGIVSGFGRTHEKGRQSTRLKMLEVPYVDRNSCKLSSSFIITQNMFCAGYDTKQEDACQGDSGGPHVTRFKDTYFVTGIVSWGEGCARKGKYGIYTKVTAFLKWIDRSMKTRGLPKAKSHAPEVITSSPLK
Chain of factor Xa (P00742 41-179 partner limits assumed): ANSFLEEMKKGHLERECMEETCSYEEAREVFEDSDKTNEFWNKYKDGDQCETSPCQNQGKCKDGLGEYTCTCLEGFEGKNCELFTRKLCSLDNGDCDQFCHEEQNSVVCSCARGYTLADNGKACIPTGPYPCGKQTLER
Chain of factor XIa (P03951 388-625 limits assumed): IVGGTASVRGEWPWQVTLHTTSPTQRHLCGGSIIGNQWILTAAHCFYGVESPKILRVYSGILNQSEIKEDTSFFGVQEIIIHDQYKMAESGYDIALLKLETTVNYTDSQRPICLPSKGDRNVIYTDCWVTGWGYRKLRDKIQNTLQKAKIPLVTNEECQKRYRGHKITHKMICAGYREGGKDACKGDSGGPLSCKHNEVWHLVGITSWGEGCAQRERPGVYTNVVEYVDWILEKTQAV

Cc1c(O)cccc1NC(=O)Cn1cc(C(=N)N)c2ccccc21 [Compound 1]
IC50 (factor XIa): 47.9 µM
IC50 (factor Xa): 167 µM
IC50 (thrombin): > 200 µM

C[C@@H](CNC(=O)Cn1cc(C(=N)N)c2ccccc21)c1ccccc1 [Compound 5]
IC50 (factor XIa): 37.1 µM
IC50 (factor Xa): 283 µM
IC50 (thrombin): > 200 µM

N=C(N)c1cn(CC(=O)Nc2cccnc2)c2c(Br)cccc12 [Compound 8]
IC50 (factor XIa): 0.62 µM
IC50 (factor Xa): 170 µM
IC50 (thrombin): > 200 µM

N=C(N)c1cn(CC(=O)Nc2cc(F)cc(F)c2)c2c(Br)cccc12 [Compound 12]
IC50 (factor XIa): 2.51 µM

N=C(N)c1cn(CC(=O)Nc2ccc3ncccc3c2)c2c(Br)cccc12 [Compound 34]
IC50 (factor XIa): 1.39 µM

N=C(N)c1cn(CC(=O)Nc2cccnc2)c2cc(CCC(N)=O)ccc12 [Compound 40]
IC50 (factor XIa): 127 µM

N=C(N)c1cn(CC(=O)Nc2cccnc2)c2c(-c3cccc(O)c3)cccc12 [Compound 46]
IC50 (factor XIa): 8.09 µM

N=C(N)c1cn(CC(=O)Nc2cccnc2)c2c(/C=C/C(N)=O)cccc12 [Compound 47]
IC50 (factor XIa): 1.77 µM
IC50 (thrombin): > 200 µM

N=C(N)c1cn(CC(=O)Nc2cccnc2)c2c(/C=C/C(=O)Nc3cccnc3)cccc12 [Compound 54]
IC50 (factor XIa): 1.99 µM

COC(=O)c1ccc(NC(=O)Cn2cc(C(=N)N)c3cccc(/C=C/C(=O)NC4Cc5ccccc5C4)c32)cc1 [Compound 58]
IC50 (factor XIa): 3.23 µM

COC(=O)c1ccc(NC(=O)Cn2cc(C(=N)N)c3cccc(/C=C/C(=O)N4CCc5cc(O)c(O)cc5C4)c32)cc1 [Compound 64]
IC50 (factor XIa): 1.96 µM

N=C(N)c1cn(CC(=O)Nc2ccc(C(=O)O)cc2)c2c(C=CC(=O)NC(Cc3ccc(O)cc3)C(=O)O)cccc12 (stereo not shown) [Compound 70]
IC50 (factor XIa): 0.042 µM
IC50 (factor Xa): > 2 µM
IC50 (thrombin): > 200 µM

N=C(N)c1cn(CC(=O)Nc2ccc(C(=O)O)cc2)c2c(/C=C/C(=O)N[C@H](C(=O)O)c3ccccc3)cccc12 [Compound 77]
IC50 (factor XIa): 0.093 µM
IC50 (factor Xa): 67.8 µM
IC50 (thrombin): > 200 µM

N=C(N)c1cn(CC(=O)Nc2cccnc2)c2c(C(N)=O)cccc12 [Compound 84]
IC50 (factor XIa): 1.47 µM

CCOC(=O)C1CCCN(C(=O)Cn2cc(C(=N)N)c3cccc(C(=O)N4CCCC(C(=O)OCC)C4)c32)C1 (stereo not shown) [Compound 91]
IC50 (factor XIa): 3.81 µM

COC(=O)c1ccc(NC(=O)Cn2cc(C(=N)N)c3cccc(C(=O)NCc4ccc(O)c(O)c4)c32)cc1 [Compound 95]
IC50 (factor XIa): 0.87 µM
IC50 (factor Xa): 82 µM
IC50 (thrombin): 4.2 µM

COC(=O)[C@H](CC(C)C)NC(=O)c1cccc2c(C(=N)N)cn(CC(=O)Nc3cccnc3)c12 [Compound 98]
IC50 (factor XIa): 0.1 µM
IC50 (thrombin): 3.78 µM

N=C(N)c1cn(C(=CC(=O)N2CCNCC2)c2ccccc2)c2ccccc12 [Compound 101]
IC50 (factor XIa): 6.27 µM

N=C(N)c1cn(C(=CC(=O)N2CCCC(C(=O)O)C2)c2ccccc2)c2ccccc12 (stereo not shown) [Compound 111]
IC50 (factor XIa): 13.7 µM

COC(=O)c1ccc(Br)cc1-n1cc(C(=N)N)c2ccccc21 [Compound 131]
IC50 (factor XIa): 1.36 µM
IC50 (factor Xa): 35.1 µM
IC50 (thrombin): 60.2 µM

COC(=O)c1ccc(-c2cccc(O)c2)cc1-n1cc(C(=N)N)c2ccccc21 [Compound 135]
IC50 (factor XIa): 1.62 µM
IC50 (factor Xa): 15.2 µM
IC50 (thrombin): 43.7 µM

COC(=O)c1ccc(-c2cccnc2)cc1-n1cc(C(=N)N)c2ccccc21 [Compound 139]
IC50 (factor XIa): 3.8 µM
IC50 (factor Xa): 9.65 µM
IC50 (thrombin): 73.1 µM

COC(=O)c1ccc(NC(=O)c2cccnc2)cc1-n1cc(C(=N)N)c2ccccc21 [Compound 142]
IC50 (factor XIa): 11.3 µM

N=C(N)c1cn(-c2cc(Br)ccc2C(=O)N2CCNCC2)c2ccccc12 [Compound 144]
IC50 (factor XIa): 81.7 µM

CON(C)C(=O)c1ccc(Br)cc1-n1cc(C(=N)N)c2ccccc21 [Compound 148]
IC50 (factor XIa): 134 µM

N=C(N)c1cn(-c2cc(Br)ccc2C(=O)NCc2ccccc2)c2ccccc12 [Compound 150]
IC50 (factor XIa): 280 µM

N=C(N)c1cn(-c2ccccc2[N+](=O)[O-])c2ccccc12 [Compound 151]
IC50 (factor XIa): 4.15 µM
IC50 (factor Xa): 145 µM
IC50 (thrombin): 224 µM

COC(=O)c1cccc(Oc2ccc([N+](=O)[O-])c(-n3cc(C(=N)N)c4ccccc43)c2)c1 [Compound 154]
IC50 (factor XIa): 3 µM
IC50 (factor Xa): 54.7 µM
IC50 (thrombin): 20.2 µM

N=C(N)c1cn(-c2cc(Cl)ccc2[N+](=O)[O-])c2c(C(=O)Nc3cccnc3)cccc12 [Compound 158]
IC50 (factor XIa): 1.24 µM
IC50 (factor Xa): 80.8 µM
IC50 (thrombin): > 200 µM
